# Reference: patent US20060069132A1, “Azolecarboxamide herbicides” (priority 2004, published 2006)
# Assays:
# [1] = test system: barnyardgrass; experiment: Test B pre-/postemergence herbicide test; assay type: in vivo, Echinochloa crus-galli; settings: for Plant response rating (0 to 100 scale), Barnyardgrass: 0 is no effect, 100 is complete control, preemergence; for Barnyardgrass plant response rating: Postemergence, scale 0 (no effect) to 100 (complete control)
# Method in brief: (§1)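 Formulation: non-phytotoxic solvent mix with surfactant. Timing: preemergence on seed and postemergence on 2–18 cm plants, applied concurrently. Readout after 13–15 d greenhouse: visual 0–100 control rating against controls.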
# [2] = test system: Surinam grass; experiment: Test B pre-/postemergence herbicide test; assay type: in vivo, Urochloa decumbens; settings: for Plant response rating (0 to 100 scale), Surinam Grass: 0 is no effect, 100 is complete control, preemergence
# Method in brief: (§2)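 Visual rating, 0 (no effect) to 100 (complete control), versus untreated controls after 13–15 d in greenhouse. Pre- and postemergence applications (postemergence plants 2–18 cm, 1–4 leaves); flooded paddy arm at 2-leaf stage. Compounds in non-phytotoxic solvent plus surfactant.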
# [3] = test system: cocklebur; experiment: Test B pre-/postemergence herbicide test; assay type: in vivo, Xanthium strumarium; settings: for Plant response rating (0 to 100 scale), Cocklebur: 0 is no effect, 100 is complete control, preemergence
# Method in brief: as §1
# [4] = test system: corn; experiment: Test B pre-/postemergence herbicide test; assay type: in vivo, Zea mays; settings: for Plant response rating (0 to 100 scale), Corn: 0 is no effect, 100 is complete control, preemergence
# Method in brief: as §2
# [5] = test system: large crabgrass; experiment: Test B pre-/postemergence herbicide test; assay type: in vivo, Digitaria sanguinalis; settings: for Plant response rating (0 to 100 scale), Crabgrass, Large: 0 is no effect, 100 is complete control, preemergence
# Method in brief: as §2
# [6] = test system: giant foxtail; experiment: Test B pre-/postemergence herbicide test; assay type: in vivo, Setaria faberi; settings: for Plant response rating (0 to 100 scale), Foxtail, Giant: 0 is no effect, 100 is complete control, preemergence
# Method in brief: as §2
# [7] = test system: lambsquarters; experiment: Test B pre-/postemergence herbicide test; assay type: in vivo, Chenopodium album; settings: for Plant response rating (0 to 100 scale), Lambsquarters: 0 is no effect, 100 is complete control, preemergence
# Method in brief: as §2
# [8] = test system: morningglory; experiment: Test B pre-/postemergence herbicide test; assay type: in vivo, Ipomoea coccinea; settings: for Plant response rating (0 to 100 scale), Morningglory: 0 is no effect, 100 is complete control, preemergence
# Method in brief: as §1
# [9] = test system: pigweed; experiment: Test B pre-/postemergence herbicide test; assay type: in vivo, Amaranthus retroflexus; settings: for Plant response rating (0 to 100 scale), Pigweed: 0 is no effect, 100 is complete control, preemergence
# Method in brief: as §2
# [10] = test system: velvetleaf; experiment: Test B pre-/postemergence herbicide test; assay type: in vivo, Abutilon theophrasti; settings: for Plant response rating (0 to 100 scale), Velvetleaf: 0 is no effect, 100 is complete control, preemergence
# Method in brief: as §2
# [11] = test system: blackgrass; experiment: Test B postemergence herbicide test; assay type: in vivo, Alopecurus myosuroides
# Method in brief: (§3)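 Scale 0–100: zero equals no visible effect, 100 complete control, judged by eye relative to controls. Timing: 13 to 15 days in greenhouse post-treatment. Growth stage at spraying: two leaves (paddy) or one to four leaves, 2–18 cm (postemergence).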
# [12] = test system: wheat; experiment: Test B postemergence herbicide test; assay type: in vivo, Triticum aestivum; parameters: key to Wheat plant response rating: 0 = no effect, 100 = complete control
# Method in brief: as §3
# [13] = test system: wild oat; experiment: Test B postemergence herbicide test; assay type: in vivo, Avena fatua
# Method in brief: as §3
# [14] = test system: rice; experiment: Test B flooded paddy test; assay type: in vivo, Oryza sativa; settings: scale 0 to 100 (0 no effect, 100 complete control)
# Method in brief: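 Read-out: visual comparison with controls, scored 0 to 100, where 100 means complete control and 0 no effect. Formulated chemicals were applied postemergence to plants 2–18 cm tall (1- to 4-leaf), or to flooded-paddy plants at the 2-leaf stage, then held 13 to 15 days under glass.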
# [15] = test system: small flower umbrella sedge; experiment: Test B flooded paddy test; assay type: in vivo, Cyperus difformis; settings: scale 0 to 100 (0 no effect, 100 complete control)
# Method in brief: as §3
# [16] = test system: ducksalad; experiment: Test B flooded paddy test; assay type: in vivo, Heteranthera limosa; settings: scale 0 to 100 (0 no effect, 100 complete control)
# Method in brief: as §3
# [17] = test system: barnyardgrass; experiment: Test B flooded paddy test; assay type: in vivo, Echinochloa crus-galli; settings: scale 0 to 100 (0 no effect, 100 complete control)
# Method in brief: as §3
# [18] = Postemergence, 500 g ai/ha, scale 0 (no effect) to 100 (complete control)
# [19] = postemergence, 125 g ai/ha, scale 0 to 100
# [20] = 500 g ai/ha, scale 0 to 100, 0 no effect, 100 complete control, preemergence
smiles,measurement,setting,value
Cc1nn(C(C)(C)C)nc1C(=O)Nc1cc(C(=O)N(C)C)ccn1 [Compound 423],"Plant response rating (0 to 100 scale), Barnyardgrass",[1]; 125 g ai/ha,90
same,Barnyardgrass plant response rating,[1]; 125 g ai/ha,10
same,Barnyardgrass plant response rating,[1]; 500 g ai/ha,30
same,"Plant response rating (0 to 100 scale), Surinam Grass",[2]; 125 g ai/ha,90
same,Surinam Grass plant response rating,[2]; [18],30
same,Surinam Grass plant response rating,[2]; [19],10
same,"Plant response rating (0 to 100 scale), Cocklebur",[3]; 125 g ai/ha,20
same,Cocklebur plant response rating,[3]; [18],30
same,Cocklebur plant response rating,[3]; [19],10
same,"Plant response rating (0 to 100 scale), Corn",[4]; 125 g ai/ha,30
same,Corn plant response rating,[4]; [18],20
same,Corn plant response rating,[4]; [19],10
same,"Plant response rating (0 to 100 scale), Crabgrass, Large",[5]; 125 g ai/ha,100
same,"Crabgrass, Large plant response rating",[5]; [18],50
same,"Crabgrass, Large plant response rating",[5]; [19],10
same,"Plant response rating (0 to 100 scale), Foxtail, Giant",[6]; 125 g ai/ha,90
same,"Foxtail, Giant plant response rating",[6]; [18],30
same,"Foxtail, Giant plant response rating",[6]; [19],20
same,"Plant response rating (0 to 100 scale), Lambsquarters",[7]; 125 g ai/ha,100
same,Lambsquarters plant response rating,[7]; [18],70
same,Lambsquarters plant response rating,[7]; [19],50
same,"Plant response rating (0 to 100 scale), Morningglory",[8]; 125 g ai/ha,30
same,Morningglory plant response rating,[8]; [18],80
same,Morningglory plant response rating,[8]; [19],40
same,"Plant response rating (0 to 100 scale), Pigweed",[9]; 125 g ai/ha,100
same,Pigweed plant response rating,[9]; [18],60
same,Pigweed plant response rating,[9]; [19],40
same,"Plant response rating (0 to 100 scale), Velvetleaf",[10]; 125 g ai/ha,90
same,Velvetleaf plant response rating,[10]; [18],50
same,Velvetleaf plant response rating,[10]; [19],40
same,Blackgrass plant response rating,[11]; [18],60
same,Blackgrass plant response rating,[11]; [19],30
same,Wheat plant response rating,[12]; [20],100
same,Wheat plant response rating,[12]; [18],0
same,Wheat plant response rating,[12]; [19],0
same,"Oat, Wild plant response rating",[13]; [18],30
same,"Oat, Wild plant response rating",[13]; [19],0
same,Rice plant response rating,[14]; 1000 g ai/ha,60
same,"Sedge, Umbrella plant response rating",[15]; 1000 g ai/ha,70
same,Ducksalad plant response rating,[16]; 1000 g ai/ha,50
same,Barnyardgrass plant response rating,[17]; 1000 g ai/ha,80
CCNC(=O)c1cncc(NC(=O)c2nn(C(C)(C)C)nc2C)c1 [Compound 427],"Plant response rating (0 to 100 scale), Barnyardgrass",[1]; 125 g ai/ha,0
same,Barnyardgrass plant response rating,[1]; 125 g ai/ha,0
same,Barnyardgrass plant response rating,[1]; 500 g ai/ha,0
same,"Plant response rating (0 to 100 scale), Surinam Grass",[2]; 125 g ai/ha,0
same,Surinam Grass plant response rating,[2]; [18],10
same,Surinam Grass plant response rating,[2]; [19],0
same,"Plant response rating (0 to 100 scale), Cocklebur",[3]; 125 g ai/ha,0
same,Cocklebur plant response rating,[3]; [18],10
same,Cocklebur plant response rating,[3]; [19],10
same,"Plant response rating (0 to 100 scale), Corn",[4]; 125 g ai/ha,0
same,Corn plant response rating,[4]; [18],0
same,Corn plant response rating,[4]; [19],0
same,"Plant response rating (0 to 100 scale), Crabgrass, Large",[5]; 125 g ai/ha,0
same,"Crabgrass, Large plant response rating",[5]; [18],30
same,"Crabgrass, Large plant response rating",[5]; [19],0
same,"Plant response rating (0 to 100 scale), Foxtail, Giant",[6]; 125 g ai/ha,0
same,"Foxtail, Giant plant response rating",[6]; [18],10
same,"Foxtail, Giant plant response rating",[6]; [19],0
same,"Plant response rating (0 to 100 scale), Lambsquarters",[7]; 125 g ai/ha,10
same,Lambsquarters plant response rating,[7]; [18],40
same,Lambsquarters plant response rating,[7]; [19],10
same,"Plant response rating (0 to 100 scale), Morningglory",[8]; 125 g ai/ha,0
same,Morningglory plant response rating,[8]; [18],30
same,Morningglory plant response rating,[8]; [19],20
same,"Plant response rating (0 to 100 scale), Pigweed",[9]; 125 g ai/ha,30
same,Pigweed plant response rating,[9]; [18],40
same,Pigweed plant response rating,[9]; [19],20
same,"Plant response rating (0 to 100 scale), Velvetleaf",[10]; 125 g ai/ha,0
same,Velvetleaf plant response rating,[10]; [18],30
same,Velvetleaf plant response rating,[10]; [19],10
same,Blackgrass plant response rating,[11]; [18],20
same,Blackgrass plant response rating,[11]; [19],0
same,Wheat plant response rating,[12]; [20],0
same,Wheat plant response rating,[12]; [18],0
same,Wheat plant response rating,[12]; [19],0
same,"Oat, Wild plant response rating",[13]; [18],0
same,"Oat, Wild plant response rating",[13]; [19],0
same,Rice plant response rating,[14]; 1000 g ai/ha,0
same,"Sedge, Umbrella plant response rating",[15]; 1000 g ai/ha,0
same,Ducksalad plant response rating,[16]; 1000 g ai/ha,0
same,Barnyardgrass plant response rating,[17]; 1000 g ai/ha,0
CCOC(=O)c1cccc(NC(=O)c2nn(C(C)(C)C)nc2Br)c1 [Compound 432],"Plant response rating (0 to 100 scale), Barnyardgrass",[1]; 125 g ai/ha,10
same,Barnyardgrass plant response rating,[1]; 125 g ai/ha,20
same,Barnyardgrass plant response rating,[1]; 500 g ai/ha,60
same,"Plant response rating (0 to 100 scale), Surinam Grass",[2]; 125 g ai/ha,10
same,Surinam Grass plant response rating,[2]; [18],70
same,Surinam Grass plant response rating,[2]; [19],10
same,"Plant response rating (0 to 100 scale), Cocklebur",[3]; 125 g ai/ha,0
same,Cocklebur plant response rating,[3]; [18],70
same,Cocklebur plant response rating,[3]; [19],40
same,"Plant response rating (0 to 100 scale), Corn",[4]; 125 g ai/ha,0
same,Corn plant response rating,[4]; [18],30
same,Corn plant response rating,[4]; [19],30
same,"Plant response rating (0 to 100 scale), Crabgrass, Large",[5]; 125 g ai/ha,30
same,"Crabgrass, Large plant response rating",[5]; [18],30
same,"Crabgrass, Large plant response rating",[5]; [19],10
same,"Plant response rating (0 to 100 scale), Foxtail, Giant",[6]; 125 g ai/ha,40
same,"Foxtail, Giant plant response rating",[6]; [18],40
same,"Foxtail, Giant plant response rating",[6]; [19],0
same,"Plant response rating (0 to 100 scale), Lambsquarters",[7]; 125 g ai/ha,0
same,Lambsquarters plant response rating,[7]; [18],30
same,Lambsquarters plant response rating,[7]; [19],0
same,"Plant response rating (0 to 100 scale), Morningglory",[8]; 125 g ai/ha,0
same,Morningglory plant response rating,[8]; [18],30
same,Morningglory plant response rating,[8]; [19],20
same,"Plant response rating (0 to 100 scale), Pigweed",[9]; 125 g ai/ha,0
same,Pigweed plant response rating,[9]; [18],10
same,Pigweed plant response rating,[9]; [19],0
same,"Plant response rating (0 to 100 scale), Velvetleaf",[10]; 125 g ai/ha,0
same,Velvetleaf plant response rating,[10]; [18],60
same,Velvetleaf plant response rating,[10]; [19],50
same,Blackgrass plant response rating,[11]; [18],40
same,Blackgrass plant response rating,[11]; [19],40
same,Wheat plant response rating,[12]; [20],0
same,Wheat plant response rating,[12]; [18],60
same,Wheat plant response rating,[12]; [19],50
same,"Oat, Wild plant response rating",[13]; [18],60
same,"Oat, Wild plant response rating",[13]; [19],50
same,Rice plant response rating,[14]; 125 g ai/ha,0
same,"Sedge, Umbrella plant response rating",[15]; 125 g ai/ha,80
same,Ducksalad plant response rating,[16]; 125 g ai/ha,30
same,Barnyardgrass plant response rating,[17]; 125 g ai/ha,30
